Assay [1] relates to MV-4-11 (human myelomonocytic leukemia cells). Briefly: CCK-8 cell proliferation assay, MV-4-11. The assay is classed as cell-based. Conditions: MV4-11, 24 h incubation, 11 concentrations from 5000 nM, 3-fold, read-out: MV-4-11 cell proliferation IC50 (class). The procedure:
(§1) Test samples: the compounds of the present invention, having structures shown above.
MV-4-11 (human myelomonocytic leukemia cells) and NCI-H929 (human myeloma cells).
The compounds were dissolved in DMSO and diluted 3-fold in the 96-well plate to obtain stock solutions with 11 concentration gradients. Each cell was inoculated into a 96-well plate, and the diluted compound stock solution was added to the 96-well plate to obtain a series of 11 concentration gradients of compound solutions with final concentrations of 5000 nM starting and 3-fold gradient decreasing, wherein the final DMSO content was […]. There was a medium containing 1‰ DMSO in the negative control well. The treated cells were incubated at 37° C. with 5% CO2 and 95% humidity, wherein MV-4-11 were incubated for 24 h and NCI-H929 for 72 h. After incubation was completed, each well was added with 10 μL of CCK-8 reagent, incubated for 1-3 h at room temperature and placed in the microplate reader, and the absorbance was read at 450 nm.
(§2) The inhibition rate was calculated according to the following formula: […]
ODcmpd: compound absorbance; ODpositive: average value of the absorbance of positive control without compound; ODvehicle: average value of the absorbance of solvent vehicle control.
(§3) IC50 values were fitted using GraphPad 7.0 based on inhibition rates of compounds at different concentrations.
Background: Formazan colour is commonly taken as a measure of viable cells.

The target of assay [2] is CDK9/CycT1 (Homo sapiens, UniProt P50750). Kind of assay: ADP-Glo kinase assay on CDK enzymatic activity, CDK9/CycT1. The assay is classed as biochemical. Conditions: 10 concentrations from 10 μM, 4-fold, 60 min room temperature. In outline: (§4)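 Enzyme activity was measured by ADP-Glo luminescence following 60 min turnover of CDK tide peptide at room temperature. Compounds spanned ten 4-fold dilutions from 10 μM final, with 0.5% DMSO.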
Chain of CDK9/CycT1 (P50750 whole entry): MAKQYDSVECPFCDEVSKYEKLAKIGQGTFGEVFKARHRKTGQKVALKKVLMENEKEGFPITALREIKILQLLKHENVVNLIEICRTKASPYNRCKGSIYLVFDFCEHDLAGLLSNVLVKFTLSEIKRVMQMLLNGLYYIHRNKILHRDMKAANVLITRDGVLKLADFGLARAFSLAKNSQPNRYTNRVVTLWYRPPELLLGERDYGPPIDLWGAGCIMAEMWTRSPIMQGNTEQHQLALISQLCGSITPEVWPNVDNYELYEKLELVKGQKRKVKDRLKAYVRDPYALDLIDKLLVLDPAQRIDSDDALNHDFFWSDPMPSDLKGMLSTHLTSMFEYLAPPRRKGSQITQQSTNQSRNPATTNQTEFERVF
Chain of CDK9/CycT1 (O60563 whole entry partner): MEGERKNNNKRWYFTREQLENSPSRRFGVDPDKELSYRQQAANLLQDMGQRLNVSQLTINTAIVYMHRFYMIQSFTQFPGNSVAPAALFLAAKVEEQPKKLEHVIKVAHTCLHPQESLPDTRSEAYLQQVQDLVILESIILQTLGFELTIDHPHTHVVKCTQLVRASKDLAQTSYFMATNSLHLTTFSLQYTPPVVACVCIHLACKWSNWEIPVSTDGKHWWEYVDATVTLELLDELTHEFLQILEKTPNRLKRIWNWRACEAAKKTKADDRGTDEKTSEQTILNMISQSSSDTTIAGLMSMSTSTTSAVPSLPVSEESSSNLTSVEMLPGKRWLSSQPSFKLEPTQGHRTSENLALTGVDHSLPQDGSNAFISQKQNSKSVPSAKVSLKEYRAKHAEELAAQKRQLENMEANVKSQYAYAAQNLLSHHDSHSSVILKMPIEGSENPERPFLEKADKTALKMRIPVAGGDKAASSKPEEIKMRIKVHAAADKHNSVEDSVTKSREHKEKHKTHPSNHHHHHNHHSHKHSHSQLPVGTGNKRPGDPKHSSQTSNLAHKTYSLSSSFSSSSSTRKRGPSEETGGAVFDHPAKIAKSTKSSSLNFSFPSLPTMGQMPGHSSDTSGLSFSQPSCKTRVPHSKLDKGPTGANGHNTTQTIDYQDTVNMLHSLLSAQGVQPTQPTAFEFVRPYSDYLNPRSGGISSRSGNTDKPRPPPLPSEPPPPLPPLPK
A general note: ADP-Glo turns the ADP formed in a reaction into a luminescent signal.

Assay [3] addresses CDK1/CycE1 (Homo sapiens, UniProt P06493). Kind of assay: ADP-Glo kinase assay on CDK enzymatic activity, CDK1/CycE1. It is filed as biochemical. Conditions: ADP-Glo; 10 concentrations from 10 μM, 4-fold; 60 min room temperature; read-out: CDK1/CycE1/nM (IC50). A digest of the protocol: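 Compounds in 10-point 4-fold dilutions from 10 μM final, preincubated 10 min with kinase, then substrate/ATP added; 60 min reaction at room temperature. ADP-Glo luminescence read.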

Assay [4] has as its target CDK2/CycA2 (Homo sapiens, UniProt P24941). Kind of assay: ADP-Glo kinase assay on CDK enzymatic activity, CDK2/CycA2. Conditions: 10 concentrations from 10 μM, 4-fold, 60 min room temperature. It is filed as biochemical. A digest of the protocol: as §4
Assay [5] concerns the target CDK3/CycE1 (Homo sapiens, UniProt Q00526). Kind of assay: ADP-Glo kinase assay on CDK enzymatic activity, CDK3/CycE1. Conditions: 10 concentrations from 10 μM, 4-fold, 60 min room temperature. It is filed as biochemical.
From the text: as §1
(§5) ADP-Glo Kinase Assay (ADP-Glo kinase kit), DMSO (dimethyl sulfoxide), CDK9/CycT1 (cyclin-dependent kinase 9/cyclin T1), CDK tide (cyclin-dependent kinase substrate peptide fragments), CDK1/CycE1 (cyclin-dependent kinase 1/cyclin E1), CDK2/CycA2 (cyclin-dependent kinase 2/cyclin A2), CDK3/CycE1 (cyclin-dependent kinase 3/cyclin E1), CDK4/CycD3 (cyclin-dependent kinase 4/cyclin D3), CDK5/p25NCK (cyclin-dependent kinase 5/p25), and AZD 4573.
(§6) A 384-well white plate, a 96-well plate, a microplate oscillator, a centrifuge, and a microplate reader.
(§7) The compounds were dissolved in DMSO and diluted 4-fold in the 96-well plate to obtain stock solutions with 10 concentration gradients, and added into a 384-well plate system to obtain a series of 10 concentration gradients of compound solutions with final concentrations of 10 μM starting and 4-fold gradient decreasing. 1 μM AZD4573 was used as compound positive control (PC) and 0.5% DMSO as solvent vehicle control (VC), ten duplicated wells each for PC and VC.
(§8) 1 μL of compound solution and 2 μL of 2× kinase solution were transferred to each well, and the plate was centrifuged at 1000 g for 30 s and left at room temperature for 10 min. A mixture of 2× substrate and ATP was prepared in 1× kinase buffer. The reaction was started after adding 2 μL of substrate and ATP into the plate. The plate was centrifuged at 1000 g for 30 s. The assay plate was closed and left at room temperature for 60 min. The reaction system was added with 4 μL of ADP Glo reagent, centrifuged at 1000 rpm for 1 min, and incubated at room temperature for 40 min. The reaction system was added with 8 μL of kinase assay reagent, centrifuged at 1000 rpm for 1 min and incubated at room temperature for 40 min. The […] was read on Biotek.
as §2
(§9) Lumcmpd: compound fluorescence reading; Lumpositive: average value of the fluorescence reading of positive compound control; Lumvehicle: average value of the fluorescence reading of solvent vehicle control.
as §3

The target of assay [6] is CDK5/p25NCK (Homo sapiens, UniProt Q00535). Kind of assay: ADP-Glo kinase assay on CDK enzymatic activity, CDK5/p25NCK. It is filed as biochemical. Conditions: 10 concentrations from 10 μM, 4-fold, 60 min room temperature.
Chain of CDK5/p25NCK (Q00535 whole entry, species assumed): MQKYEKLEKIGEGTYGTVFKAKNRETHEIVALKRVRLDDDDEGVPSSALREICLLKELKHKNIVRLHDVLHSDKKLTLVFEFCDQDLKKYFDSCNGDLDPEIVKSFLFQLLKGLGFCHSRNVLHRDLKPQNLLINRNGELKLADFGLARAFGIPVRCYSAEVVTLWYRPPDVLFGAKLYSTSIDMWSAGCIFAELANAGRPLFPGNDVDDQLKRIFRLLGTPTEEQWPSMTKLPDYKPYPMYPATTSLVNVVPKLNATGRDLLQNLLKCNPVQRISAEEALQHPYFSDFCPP
Chain of CDK5/p25NCK (Q15078 99-307 partner limits assumed, species assumed): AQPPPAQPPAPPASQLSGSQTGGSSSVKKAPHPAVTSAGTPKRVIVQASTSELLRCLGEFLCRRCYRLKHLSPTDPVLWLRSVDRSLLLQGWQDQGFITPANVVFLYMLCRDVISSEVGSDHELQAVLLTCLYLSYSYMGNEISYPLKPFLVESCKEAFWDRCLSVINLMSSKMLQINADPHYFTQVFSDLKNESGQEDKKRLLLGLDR
From the text: as §1, §5, §6, §7, §8, §2, §9, §3

The structures appear in SMILES notation.

Chain of CDK1/CycE1 (P06493 whole entry, species assumed): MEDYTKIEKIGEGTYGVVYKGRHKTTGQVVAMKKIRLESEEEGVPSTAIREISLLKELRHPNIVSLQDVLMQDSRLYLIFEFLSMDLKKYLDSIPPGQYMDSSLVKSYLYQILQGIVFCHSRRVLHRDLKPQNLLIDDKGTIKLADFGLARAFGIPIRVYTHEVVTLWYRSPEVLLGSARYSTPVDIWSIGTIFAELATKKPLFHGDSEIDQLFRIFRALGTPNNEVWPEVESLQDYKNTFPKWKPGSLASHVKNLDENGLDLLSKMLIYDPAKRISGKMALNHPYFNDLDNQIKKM
Chain of CDK1/CycE1 (P24864 whole entry partner, species assumed): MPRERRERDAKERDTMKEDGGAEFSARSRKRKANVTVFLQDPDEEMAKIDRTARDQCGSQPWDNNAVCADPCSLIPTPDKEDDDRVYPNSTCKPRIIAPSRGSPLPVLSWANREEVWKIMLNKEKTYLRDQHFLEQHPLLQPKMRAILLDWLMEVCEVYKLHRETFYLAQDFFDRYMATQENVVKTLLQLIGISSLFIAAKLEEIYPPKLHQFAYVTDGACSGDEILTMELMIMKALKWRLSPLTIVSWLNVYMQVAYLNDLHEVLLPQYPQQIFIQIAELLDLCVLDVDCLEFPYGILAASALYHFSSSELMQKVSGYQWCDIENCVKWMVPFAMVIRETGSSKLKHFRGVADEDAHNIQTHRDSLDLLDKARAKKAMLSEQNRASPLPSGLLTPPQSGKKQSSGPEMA
Chain of CDK3/CycE1 (Q00526 whole entry, species assumed): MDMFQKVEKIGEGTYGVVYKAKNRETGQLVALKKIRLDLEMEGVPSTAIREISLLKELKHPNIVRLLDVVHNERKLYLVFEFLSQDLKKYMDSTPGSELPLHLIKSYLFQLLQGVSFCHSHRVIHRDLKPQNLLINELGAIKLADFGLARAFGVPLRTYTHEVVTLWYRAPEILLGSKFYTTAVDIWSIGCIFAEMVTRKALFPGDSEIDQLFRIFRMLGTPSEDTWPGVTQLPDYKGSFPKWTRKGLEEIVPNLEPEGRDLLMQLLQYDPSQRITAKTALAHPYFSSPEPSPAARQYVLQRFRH
Chain of CDK3/CycE1 (P24864 whole entry partner, species assumed): as the sequence (P24864 whole entry partner, species assumed) above

As to `CC(=O)N[C@@H]1CCC[C@H](C(=O)Nc2ncc3cc(C#N)nc(NC(C)C)c3n2)C1` [Compound 3, (1S,3R)-3-acetamido-N-(6-cyano-8-(isopropylamino)pyrido[3,4-d]pyrimidin-2-yl)cyclohexane-1-carboxamide], in assay [1], the IC50 was over 1 µM.

In the case of `CC(=O)N[C@@H]1CCC[C@H](C(=O)Nc2ncc3cc(S(C)(=O)=O)nc(NC(C)C)c3n2)C1` [Compound 5, (1S,3R)-3-acetamido-N-(8-(isopropylamino)-6-(methylsulfonyl)pyrido[3,4-d]pyrimidin-2-yl)cyclohexane-1-carboxamide], the IC50 in assay [1] is over 1 µM.

With `CC(=O)N1CCC[C@H](C(=O)Nc2ncc3cc(C#N)nc(NC(C)C)c3n2)C1` [Compound 6, (S)-1-acetyl-N-(6-cyano-8-(isopropylamino)pyrido[3,4-d]pyrimidin-2-yl)piperidine-3-carboxamide], the IC50 in assay [1] was over 1 µM.

Turning to `CC(=O)N[C@@H]1CCC[C@H](C(=O)Nc2ncc3cc(C(F)F)nc(NC(C)C)c3n2)C1` [Compound 7, (1S,3R)-3-acetamido-N-(6-(difluoromethyl)-8-(isopropylamino)pyrido[3,4-d]pyrimidin-2-yl)cyclohexane-1-carboxamide], the values for the IC50 in assay [2] and in assay [1] were 44 nM and over 1 µM, respectively.

`CC(=O)N[C@@H]1CCC[C@H](C(=O)Nc2ncc3cc(C)nc(NC(C)C)c3n2)C1` [Compound 8, (1S,3R)-3-acetamido-N-(8-(isopropylamino)-6-methylpyrido[3,4-d]pyrimidin-2-yl)cyclohexane-1-carboxamide]: the IC50 in assay [1] is over 1 µM.

Take `CCc1cc2cnc(NC(=O)[C@H]3CCC[C@@H](NC(C)=O)C3)nc2c(NC(C)C)n1` [Compound 9, (1S,3R)-3-acetamido-N-(6-ethyl-8-(isopropylamino)pyrido[3,4-d]pyrimidin-2-yl)cyclohexane-1-carboxamide]: the IC50 in assay [1] is over 1 µM.

For `CNc1cc2cnc(NC(=O)[C@H]3CCC[C@@H](NC(C)=O)C3)nc2c(NC(C)C)n1` [Compound 11, (1S,3R)-3-acetamido-N-(8-(isopropylamino)-6-(methylamino)pyrido[3,4-d]pyrimidin-2-yl)cyclohexane-1-carboxamide], the IC50 in assay [1] was over 1 µM.

Consider `COc1cc2cnc(NC(=O)[C@H]3CCC[C@@H](NC(C)=O)C3)nc2c(NC(C)C)n1` [Compound 12, (1S,3R)-3-acetamido-N-(8-(isopropylamino)-6-methoxypyrido[3,4-d]pyrimidin-2-yl)cyclohexane-1-carboxamide], for which, in assay [1], the IC50 was over 1 µM.

Regarding `CC(=O)N[C@@H]1CCC[C@H](C(=O)Nc2cc3c(N4CCOCC4)nc(C#N)cc3cn2)C1` [Compound 21, (1S,3R)-3-acetamido-N-(7-cyano-5-morpholino-2,6-naphthyridin-3-yl)cyclohexane-1-carboxamide], the IC50 in assay [1] is over 1 µM.

As to `CC(C)Nc1nc(C#N)cc2cnc(N[C@H]3CCC[C@@H](N)C3)cc12` [Compound 40, 7-(((1S,3R)-3-aminocyclohexyl)amino)-1-(isopropylamino)-2,6-naphthyridine-3-carbonitrile], the IC50 in assay [1] is 0.4 to 1 µM.

For the molecule `CC(C)Cc1nc(C#N)cc2cnc(N[C@H]3CCCNC3)cc12` [Compound 108, (S)-1-isobutyl-7-(piperidin-3-ylamino)-2,6-naphthyridine-3-carbonitrile], in assay [1], the IC50 lay in the range of 0.4 to 1 µM.

`CCNc1nc(C#N)cc2cnc(N[C@H]3CCCNC3)cc12` [Compound 186, (S)-1-(ethylamino)-7-(piperidin-3-ylamino)-2,6-naphthyridine-3-carbonitrile]: the IC50 in assay [2] worked out at 3 nM; in assay [3], 336 nM; in assay [4] it was 352 nM; in assay [5], 915 nM; in assay [6], 176 nM.

Consider `Cc1nc(C#N)cc2cnc(N[C@H]3CCCNC3)cc12` [Compound 196, (S)-1-methyl-7-(piperidin-3-ylamino)-2,6-naphthyridine-3-carbonitrile], for which the IC50 in assay [1] was over 1 µM.

Regarding `CCOc1nc(C(F)F)cc2cnc(N[C@H]3C[C@H](N)C3)cc12` [Compound 200, (trans)-N^1-(7-(difluoromethyl)-5-ethoxy-2,6-naphthyridin-3-yl)cyclobutane-1,3-diamine], the IC50 in assay [2] amounted to 2 nM; in assay [3], 149 nM; in assay [4] it was 244 nM; in assay [5] it was 1100 nM; in assay [6], 263 nM.

On to `FC(F)c1cc2cnc(N[C@H]3CCCNC3)cc2c(N[C@@H]2CCOC2)n1` [Compound 201, 3-(difluoromethyl)-N7—((S)-piperidin-3-yl)-N^1—((R)-tetrahydrofuran-3-yl)-2,6-naphthyridine-1,7-diamine], for which the IC50 stood at 2 nM in assay [2]; 215 nM in assay [3]; 83 nM in assay [4]; 189 nM in assay [5]; 53 nM in assay [6].

In the case of `FC(F)c1cc2cnc(N[C@H]3CCCNC3)cc2c(O[C@@H]2CCOC2)n1` [Compound 202, 7-(difluoromethyl)-N—((S)-piperidin-3-yl)-5-(((R)-tetrahydrofuran-3-yl)oxy)-2,6-naphthyridin-3-amine], the IC50 came to 4 nM in assay [2]; 521 nM in assay [3]; 337 nM in assay [4]; 398 nM in assay [5]; 168 nM in assay [6].

In the case of `CC1(Oc2nc(C#N)cc3cnc(N[C@H]4CCCNC4)cc23)CC1` [Compound 204, (S)-1-(1-methylcyclopropoxy)-7-(piperidin-3-amino)-2,6-naphthyridine-3-carbonitrile], the IC50 in assay [2] is 2 nM; in assay [3] it was 903 nM; in assay [4], 1010 nM; in assay [5] it was 1410 nM; in assay [6], 523 nM.

Take `CC(C)(C)Nc1nc(C(F)F)cc2cnc(N[C@H]3CCCNC3)nc12` [Compound C1]: the IC50 was 2 nM in assay [2]; 7 nM in assay [3]; 21 nM in assay [4]; 7 nM in assay [5]; 17 nM in assay [6].

Turning to `CC(C)(C)Nc1nc(C(F)F)cc2cnc(NC3CCNCC3)nc12` [Compound C2, N^8-(tert-butyl)-6-(difluoromethyl)-N^2-(piperidin-4-yl)pyrido[3,4-d]pyrimidine-2,8-diamine], the IC50 in assay [2] is 4 nM; in assay [3] it was 48 nM; in assay [4] it was 48 nM; in assay [5], 53 nM; in assay [6], 465 nM.

Take `CC(C)Nc1nc(C#N)cc2cnc(N[C@@H]3CN4CCC3CC4)nc12` [Compound C45, (S)-8-(isopropylamino)-2-(quinuclidin-3-ylamino)pyrido[3,4-d]pyrimidine-6-carbonitrile]: the IC50 in assay [2] is 6 nM; in assay [3] it was 467 nM; in assay [4] it was 1310 nM; in assay [5] it was 340 nM; in assay [6], 7980 nM.

Turning to `CC(C)Nc1nc(C(F)(F)F)cc2cnc(N[C@H]3CCCNC3)nc12` [Compound C46, (S)—N^8-isopropyl-N^2-(piperidin-3-yl)-6-(trifluoromethyl)pyrido[3,4-d]pyrimidine-2,8-diamine], the IC50 stood at 2 nM in assay [2]; 19 nM in assay [3]; 33 nM in assay [4]; 8 nM in assay [5]; 60 nM in assay [6].

For the origin of these results see patent publication US20250163043A1 (TRANSTHERA SCIENCES (NANJING), INC., priority 2021, published 2025).
